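Growth conditions: 96-well plates. Treatment: test compound, 48 hours, 5 concentrations. Analysis: linear interpolation between bracketing concentrations; unreached endpoints set to highest concentration. The concentration for 50% growth inhibition is given as GI50.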 The source made the active and inactive calls. Cut-off read from the data, not from the text of the source: active = GI50 up to about 1.1 µM and inactive = higher.
Columns and labels:
Assay in all cases: DTP human tumour cell line panel, 48 h
LOX IMVI = test system: LOX IMVI
M14 = test system: M14
UO-31 = test system: UO-31
T47D = test system: T47D
OVCAR-3 = test system: OVCAR-3
786-0 = test system: 786-0
RPMI-8226 = test system: RPMI-8226
NCI-H226 = test system: NCI-H226
OVCAR-4 = test system: OVCAR-4
HL-60 = test system: HL-60
SF-539 = test system: SF-539
SNB-75 = test system: SNB-75
UACC-257 = test system: UACC-257
KM12 = test system: KM12
SK-MEL-5 = test system: SK-MEL-5
PC-3 = test system: PC-3
MOLT-4 = test system: MOLT-4
NCI-H522 = test system: NCI-H522
HCC 2998 = test system: HCC 2998
SR = test system: SR

Structure (SMILES)	GI50 (LOX IMVI)	GI50 (M14)	GI50 (UO-31)	GI50 (T47D)	GI50 (OVCAR-3)	GI50 (786-0)	GI50 (RPMI-8226)	GI50 (NCI-H226)	GI50 (OVCAR-4)	GI50 (HL-60)	GI50 (SF-539)	GI50 (SNB-75)	GI50 (UACC-257)	GI50 (KM12)	GI50 (SK-MEL-5)	GI50 (PC-3)	GI50 (MOLT-4)	GI50 (NCI-H522)	GI50 (HCC 2998)	GI50 (SR)
COC(=O)C1CCC(=O)N1CN(C(C)=O)c1cccc(O)c1 (centres undefined)	> 100 µM (inactive)	> 100 µM (inactive)	> 100 µM (inactive)	> 100 µM (inactive)	> 100 µM (inactive)	> 100 µM (inactive)	> 100 µM (inactive)	> 100 µM (inactive)	> 100 µM (inactive)	> 100 µM (inactive)	> 100 µM (inactive)	> 100 µM (inactive)	> 100 µM (inactive)	> 100 µM (inactive)	> 100 µM (inactive)	> 100 µM (inactive)	> 100 µM (inactive)	> 100 µM (inactive)	–	–
Oc1nc(S)nc2c1C(c1ccc(Cl)cc1)c1c(O)nc(S)nc1O2	> 100 µM (inactive)	> 100 µM (inactive)	> 100 µM (inactive)	–	> 100 µM (inactive)	> 100 µM (inactive)	> 100 µM (inactive)	> 100 µM (inactive)	> 100 µM (inactive)	> 100 µM (inactive)	–	–	> 100 µM (inactive)	> 100 µM (inactive)	> 100 µM (inactive)	> 100 µM (inactive)	> 100 µM (inactive)	> 100 µM (inactive)	–	–
Cc1c(C#N)c2ccccc2c2nc3ccccc3n12	34.4 µM (inactive)	–	11.7 µM (inactive)	–	> 100 µM (inactive)	37.9 µM (inactive)	> 100 µM (inactive)	> 100 µM (inactive)	38.4 µM (inactive)	> 100 µM (inactive)	39 µM (inactive)	73.3 µM (inactive)	> 100 µM (inactive)	> 100 µM (inactive)	5.82 µM (inactive)	> 100 µM (inactive)	47.5 µM (inactive)	16.4 µM (inactive)	64.3 µM (inactive)	> 10 µM (inactive)
CCOC(=O)c1c(C)nc2c3ccccc3c(C#N)c(C)n12	> 100 µM (inactive)	–	15.6 µM (inactive)	–	> 100 µM (inactive)	> 10 µM (inactive)	> 100 µM (inactive)	> 100 µM (inactive)	94 µM (inactive)	> 100 µM (inactive)	> 100 µM (inactive)	20.6 µM (inactive)	> 100 µM (inactive)	> 100 µM (inactive)	48.1 µM (inactive)	> 100 µM (inactive)	> 100 µM (inactive)	23 µM (inactive)	> 100 µM (inactive)	33.9 µM (inactive)
O=C1N/C(=C\[N+](=O)[O-])c2ccccc21	> 100 µM (inactive)	> 100 µM (inactive)	> 100 µM (inactive)	–	> 100 µM (inactive)	> 100 µM (inactive)	> 100 µM (inactive)	> 100 µM (inactive)	> 100 µM (inactive)	> 100 µM (inactive)	> 100 µM (inactive)	25.9 µM (inactive)	> 100 µM (inactive)	> 100 µM (inactive)	> 100 µM (inactive)	–	> 100 µM (inactive)	> 100 µM (inactive)	> 100 µM (inactive)	> 100 µM (inactive)
C=C(C)[C@H]1C2=CC(C(=O)OC)=C(C[C@H](C(=C)C)[C@@H](O)[C@@H](O)C3=C[C@H]1OC3=O)O2	> 100 µM (inactive)	> 100 µM (inactive)	18 µM (inactive)	> 100 µM (inactive)	> 100 µM (inactive)	> 100 µM (inactive)	> 100 µM (inactive)	> 100 µM (inactive)	> 100 µM (inactive)	61 µM (inactive)	> 100 µM (inactive)	37.7 µM (inactive)	> 100 µM (inactive)	> 100 µM (inactive)	> 100 µM (inactive)	–	97.5 µM (inactive)	> 100 µM (inactive)	–	–
CSC1(CC(=O)N2CCCCC2)C(=O)Nc2ccccc21 (centres undefined)	> 100 µM (inactive)	> 100 µM (inactive)	> 100 µM (inactive)	> 100 µM (inactive)	> 100 µM (inactive)	> 100 µM (inactive)	> 100 µM (inactive)	> 100 µM (inactive)	> 100 µM (inactive)	–	> 100 µM (inactive)	> 100 µM (inactive)	> 100 µM (inactive)	> 100 µM (inactive)	> 100 µM (inactive)	> 100 µM (inactive)	> 100 µM (inactive)	–	> 100 µM (inactive)	–
COc1cc(C(c2ccc3c(c2)OCO3)N2C(=O)CCC2C(=O)O)cc(OC)c1OC (centres undefined)	> 100 µM (inactive)	> 100 µM (inactive)	> 100 µM (inactive)	> 100 µM (inactive)	> 100 µM (inactive)	> 100 µM (inactive)	> 100 µM (inactive)	> 100 µM (inactive)	> 100 µM (inactive)	> 100 µM (inactive)	> 100 µM (inactive)	> 100 µM (inactive)	> 100 µM (inactive)	> 100 µM (inactive)	> 100 µM (inactive)	> 100 µM (inactive)	> 100 µM (inactive)	> 100 µM (inactive)	> 100 µM (inactive)	–
Cn1c(S)nnc1CNc1ccc(-c2nnc(S)n2C)cc1	> 100 µM (inactive)	> 100 µM (inactive)	> 100 µM (inactive)	–	> 100 µM (inactive)	> 100 µM (inactive)	–	> 100 µM (inactive)	> 100 µM (inactive)	> 100 µM (inactive)	> 100 µM (inactive)	> 100 µM (inactive)	> 100 µM (inactive)	> 100 µM (inactive)	> 100 µM (inactive)	> 100 µM (inactive)	> 100 µM (inactive)	> 100 µM (inactive)	> 100 µM (inactive)	–
Nc1ccc2c(c1)N(C(=O)c1cc3cc(NC(=O)c4cc5ccccc5o4)ccc3[nH]1)CC2CCl (centres undefined)	0.0398 µM (active)	0.12 µM (active)	0.0296 µM (active)	0.114 µM (active)	0.0743 µM (active)	0.0638 µM (active)	0.0284 µM (active)	0.13 µM (active)	0.0605 µM (active)	0.0416 µM (active)	0.0191 µM (active)	0.153 µM (active)	0.113 µM (active)	0.115 µM (active)	0.0397 µM (active)	0.0671 µM (active)	0.045 µM (active)	< 0.01 µM (active)	0.0724 µM (active)	–
CN(C)CCn1nc(N)c2nc3cc(C(F)(F)F)ccc3nc21	54.8 µM (inactive)	> 100 µM (inactive)	31.3 µM (inactive)	–	–	> 100 µM (inactive)	> 100 µM (inactive)	2.49 µM (inactive)	> 100 µM (inactive)	34.6 µM (inactive)	–	15.5 µM (inactive)	> 100 µM (inactive)	> 100 µM (inactive)	> 100 µM (inactive)	> 100 µM (inactive)	33.2 µM (inactive)	42 µM (inactive)	75.9 µM (inactive)	> 100 µM (inactive)
COc1cc2cc3c4c(cc(OC)c(OC)c4c2cc1OC)CCN3C(=O)CCC(=O)NCCCN(C)C	14.3 µM (inactive)	17.6 µM (inactive)	> 100 µM (inactive)	–	> 100 µM (inactive)	78 µM (inactive)	38.5 µM (inactive)	66.8 µM (inactive)	> 100 µM (inactive)	21.7 µM (inactive)	18.8 µM (inactive)	10.3 µM (inactive)	> 100 µM (inactive)	67.1 µM (inactive)	14.7 µM (inactive)	–	58.9 µM (inactive)	21.8 µM (inactive)	> 100 µM (inactive)	25.2 µM (inactive)
CCOC(=O)N1CCC2(CC1)C[C@](C)(C(C)=O)C(C)O2 (some centres undefined)	> 100 µM (inactive)	> 100 µM (inactive)	> 100 µM (inactive)	–	> 100 µM (inactive)	> 100 µM (inactive)	> 100 µM (inactive)	> 100 µM (inactive)	> 100 µM (inactive)	2.81 µM (inactive)	> 100 µM (inactive)	–	> 100 µM (inactive)	> 100 µM (inactive)	> 100 µM (inactive)	> 100 µM (inactive)	> 100 µM (inactive)	> 100 µM (inactive)	> 100 µM (inactive)	> 100 µM (inactive)
CSc1nc(Nc2cccc(C(F)(F)F)c2)c2c(N)nn(C)c2n1	71.1 µM (inactive)	76 µM (inactive)	> 100 µM (inactive)	71.8 µM (inactive)	> 100 µM (inactive)	> 100 µM (inactive)	> 100 µM (inactive)	> 100 µM (inactive)	> 100 µM (inactive)	–	–	81.3 µM (inactive)	> 100 µM (inactive)	> 100 µM (inactive)	> 100 µM (inactive)	> 100 µM (inactive)	49 µM (inactive)	34 µM (inactive)	89.7 µM (inactive)	–
O=C(Cc1ccccc1)NNc1nc(NNC(=O)c2ccncc2)nc(Nc2ccc(Cl)cc2)n1	> 10 µM (inactive)	> 10 µM (inactive)	> 10 µM (inactive)	> 10 µM (inactive)	–	> 10 µM (inactive)	> 10 µM (inactive)	–	> 10 µM (inactive)	> 10 µM (inactive)	> 10 µM (inactive)	> 10 µM (inactive)	> 10 µM (inactive)	> 10 µM (inactive)	> 10 µM (inactive)	–	> 10 µM (inactive)	–	> 10 µM (inactive)	> 10 µM (inactive)
COc1cc(CNC2c3cc4c(cc3C(c3cc(OC)c(OC)c(OC)c3)[C@H]3C(=O)OCC23)OCO4)cc(OC)c1OC (some centres undefined)	0.288 µM (active)	0.447 µM (active)	0.792 µM (active)	–	0.627 µM (active)	0.428 µM (active)	0.419 µM (active)	0.128 µM (active)	–	0.223 µM (active)	0.191 µM (active)	0.535 µM (active)	> 100 µM (inactive)	0.177 µM (active)	0.216 µM (active)	–	0.367 µM (active)	0.0661 µM (active)	0.305 µM (active)	0.314 µM (active)

— ChEMBL document CHEMBL1201862, “PubChem BioAssay data set” (2004)
